Like-named read-outs stand apart in the source and are kept apart here.
Legend:
[1] = target: Duck hepatitis virus polymerase (Duck hepatitis B virus, UniProt P03162); experiment: Inhibition of duck hepatitis B virus polymerase (reverse transcriptase) using DNA and RNA templates; type: biochemical; conditions: compounds used as 5'-triphosphates
Source text: (§1) There is no cell culture assay which can be used to determine the efficiacy of compounds against hepatitis B virus. However, the hepatitis B virus encodes a reverse transcriptase, Summer and Mason, Cell 29 (1982) 403-415, obligatory for hepatitis b virus replication. This enzyme, which is also a consituent of the hepatitis B virus particles, can be used to evaluate the inhibitory activity against hepatitis B virus of nucleoside analogues provided that these compounds are used as their metabolic products, 5'-triphosphates. […] The hepatitis B virus reverse transcriptase can, as all reverse transcriptases, use both RNA and DNA templates, and included in Table 2 is also the inhibition of duck hepatitis B virus polymerase using both DNA and RNA templates.
(§2) The assays were performed as described in Tao et al. Hepatitis B virus was for a long time considered to be a DNA virus with a viral DNA polymerase being part of the virus particles. However, it was discovered that the hepatitis B virus DNA polymerase activity was due to a reverse transcriptase and that this virus should be regarded as a retrovirus which, in contrast to other retroviruses, uses its DNA phase as genetic material in the virus particles. Summers and Mason. Hepatitis B viruses are therefore not related to DNA viruses such as herpes-viruses or adeno-virus, but rather are related to retroviruses such as HIV.

[2] = target: Hepatitis B virus polymerase (Hepatitis B virus genotype D subtype ayw, UniProt P03156); experiment: Inhibition of hepatitis B virus polymerase (reverse transcriptase) using a DNA template; type: biochemical; conditions: compounds used as 5'-triphosphates
Hepatitis B virus polymerase, sequence (P03156 whole entry): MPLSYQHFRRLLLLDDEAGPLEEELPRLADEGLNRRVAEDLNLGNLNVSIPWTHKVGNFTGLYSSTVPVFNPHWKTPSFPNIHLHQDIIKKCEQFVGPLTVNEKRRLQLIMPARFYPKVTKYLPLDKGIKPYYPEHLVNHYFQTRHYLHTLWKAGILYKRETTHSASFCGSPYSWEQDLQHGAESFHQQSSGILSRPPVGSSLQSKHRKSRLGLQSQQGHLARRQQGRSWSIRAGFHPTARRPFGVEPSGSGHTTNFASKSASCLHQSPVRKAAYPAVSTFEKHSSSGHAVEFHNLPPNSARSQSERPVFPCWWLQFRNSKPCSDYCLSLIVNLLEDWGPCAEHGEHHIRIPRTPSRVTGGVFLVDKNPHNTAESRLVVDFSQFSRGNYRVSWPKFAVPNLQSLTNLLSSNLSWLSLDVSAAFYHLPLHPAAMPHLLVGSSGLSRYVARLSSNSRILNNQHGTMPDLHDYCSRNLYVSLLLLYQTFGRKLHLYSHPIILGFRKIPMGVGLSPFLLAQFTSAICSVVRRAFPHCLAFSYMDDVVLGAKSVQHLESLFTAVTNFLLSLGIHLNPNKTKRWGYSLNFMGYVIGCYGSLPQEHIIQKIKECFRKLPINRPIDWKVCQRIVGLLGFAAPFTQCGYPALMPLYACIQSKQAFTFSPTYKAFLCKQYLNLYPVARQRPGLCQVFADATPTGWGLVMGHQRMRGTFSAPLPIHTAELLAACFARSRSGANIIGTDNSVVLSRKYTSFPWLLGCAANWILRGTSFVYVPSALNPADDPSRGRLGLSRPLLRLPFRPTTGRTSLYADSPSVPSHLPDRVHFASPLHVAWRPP
Source text: as §1, §2

[3] = test system: HIV (HTLV-IIIB) in H9 cells; experiment: Inhibition of human immunodeficiency virus multiplication in cell culture (HIV infection of H9 cells); type: cell-based; conditions: Human immunodeficiency virus 1, 6-7 days, HIV antigen containing cells by immunofluorescence, read-out: Concentration for 50% inhibition (IC50) of human immunodeficiency virus multiplication in cell culture
Experimental: H9 cells, 10^5 cells per well on a 24 well plate, suspended in 2 ml RPMI-medium containing 10% fetal calf serum, 100 μg/ml penicillin, 10 μg/ml streptomycin sulfate and 2 μg/ml polybrene are exposed to HIV (HTLV-IIIB) and different concentrations of the inhibiting compounds. The plates are incubated at 37° C. in 5% CO2 for 6-7 days. The contents in each well is then homogenized with a pipette and transferred to a centrifuge tube. After centrifugation for 10 min at 1500 rpm the supernatent is removed and the cell pellet is analyzed by fixing in methanol on glass plates. Human HIV positive serum diluted 1:80 or 1:160 is added and incubated for 30 min at 37°. The plate is then washed with phosphate-buffered saline (PBS) containing Ca^2+ and Mg^2+. Sheep antihuman conjugate (FITC) is added and after a new incubation the plate is again washed with PBS. Contrast staining is done with Evans blue and after drying the frequency of HIV antigen containing cells is determined in a microscope.

[4] = monkeys, Tao et al., cited from earlier work; for absorption: oral; for Elimination half-lives: range given for both compounds together
[5] = DNA template, read-out: IC50, duck hepatitis virus polymerase, DNA template
[6] = RNA template, read-out: IC50, duck hepatitis virus polymerase, RNA template

Duck hepatitis virus polymerase, sequence (P03162 whole entry): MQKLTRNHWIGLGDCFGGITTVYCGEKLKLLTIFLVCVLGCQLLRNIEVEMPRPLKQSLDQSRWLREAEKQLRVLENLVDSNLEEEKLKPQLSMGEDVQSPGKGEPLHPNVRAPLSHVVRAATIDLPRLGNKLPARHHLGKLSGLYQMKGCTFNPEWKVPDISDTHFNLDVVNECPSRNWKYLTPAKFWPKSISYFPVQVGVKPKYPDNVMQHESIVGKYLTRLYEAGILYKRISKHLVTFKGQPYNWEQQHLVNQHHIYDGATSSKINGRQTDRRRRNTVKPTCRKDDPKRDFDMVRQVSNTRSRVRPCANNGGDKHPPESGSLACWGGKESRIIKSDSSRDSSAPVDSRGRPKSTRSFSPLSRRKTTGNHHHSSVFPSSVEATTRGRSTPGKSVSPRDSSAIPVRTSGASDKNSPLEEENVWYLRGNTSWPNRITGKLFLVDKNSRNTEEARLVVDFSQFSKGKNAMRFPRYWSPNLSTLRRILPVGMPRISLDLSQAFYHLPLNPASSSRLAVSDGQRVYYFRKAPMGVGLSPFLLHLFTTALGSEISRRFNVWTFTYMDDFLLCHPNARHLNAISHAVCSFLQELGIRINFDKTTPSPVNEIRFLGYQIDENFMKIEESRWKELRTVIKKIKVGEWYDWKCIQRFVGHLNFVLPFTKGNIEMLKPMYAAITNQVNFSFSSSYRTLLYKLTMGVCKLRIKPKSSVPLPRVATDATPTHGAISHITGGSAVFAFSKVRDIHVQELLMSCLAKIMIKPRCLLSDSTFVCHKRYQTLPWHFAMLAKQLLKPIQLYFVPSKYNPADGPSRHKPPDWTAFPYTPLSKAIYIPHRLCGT

SMILES: CC=Cc1cn([C@@H]2O[C@H](CO)[C@@H](O)[C@@H]2O)c(=O)[nH]c1=O [1-(β-D-arabinofuranosyl)-5-(1-propenyl)-uracil]
- IC50 [1, 5]: 340 nM
- IC50 [1, 6]: 540 nM
- IC50 [2]: 240 nM
- IC50 [3]: < 1000 nM
- absorption [4]: moderately well absorbed
- Elimination half-lives [4]: 1.2 to 1.8 h

SMILES: CCc1cn([C@@H]2O[C@H](CO)[C@@H](O)[C@@H]2O)c(=O)[nH]c1=O [1-(β-D-arabinofuranosyl)-5-ethyluracil]
- IC50 [3]: 2000 nM

SMILES: C=C(C)c1cn([C@@H]2O[C@H](CO)[C@@H](O)[C@@H]2O)c(=O)[nH]c1=O [1-(β-D-arabinofuranosyl)-5-isopropenyluracil]
- IC50 [3]: 2000 nM

SMILES: C=C(C)c1cn([C@H]2C[C@H](O)[C@@H](CO)O2)c(=O)[nH]c1=O [5-(1-isopropenyl)-2'-deoxyuridine]
- IC50 [3]: 1000 to 10000 nM

SMILES: CC=Cc1cn([C@H]2C[C@H](O)[C@@H](CO)O2)c(=O)[nH]c1=O [5-(1-propenyl)-2'-deoxyuridine]
- IC50 [1, 5]: 110 nM
- IC50 [1, 6]: 150 nM
- IC50 [2]: 100 nM
- IC50 [3]: < 1000 nM
- absorption [4]: moderately well absorbed
- Elimination half-lives [4]: 1.2 to 1.8 h

SMILES: CCc1cn([C@H]2C[C@H](O)[C@@H](CO)O2)c(=O)[nH]c1=O [5-Ethyl-2'-deoxythymidine]
- IC50 [1, 5]: 900 nM
- IC50 [1, 6]: 740 nM
- IC50 [2]: 250 nM

SMILES: O=c1[nH]c(=O)n([C@H]2C[C@H](O)[C@@H](CO)O2)cc1C1CC1 [5-cyclopropyl-2'-deoxyuridine]
- IC50 [3]: < 1000 nM

SMILES: CCc1cn([C@H]2C[C@H](O)[C@@H](CO)O2)c(=O)[nH]c1=O [5-ethyl-2'-deoxyuridine]
- IC50 [3]: 1000 nM

SMILES: O=c1[nH]c(=O)n([C@H]2C[C@H](O)[C@@H](CO)O2)cc1CO [5-hydroxymethyl-2'-deoxyuridine]
- IC50 [1, 5]: 500 nM
- IC50 [1, 6]: 240 nM
- IC50 [2]: 250 nM
- IC50 [3]: < 1000 nM

Source: patent US5215971A, “Antiviral pharmaceutical composition comprising 5-substituted pyrimidine nucleosides” (priority 1986, dated 1993)
